Values joined by “and” are separate entries in the source; they are usually repeats but may differ in a detail not shown here. Equal values may be shown once. Read-outs that look alike come from different tables or passages of the source.
Key:
[1] = molecular target: SMARCA2 (Homo sapiens, UniProt P51531); test: Imaging-based SMARCA2 protein assay in RKO cells; format: cell-based; set-up: endogenous in cells; host or cells: RKO, NCI-H1568, A549, HCT116, LU99, HCC-364, HCT-15, HCC4006, SK-N-AS; conditions: individual replicates
SMARCA2, sequence (P51531 whole entry): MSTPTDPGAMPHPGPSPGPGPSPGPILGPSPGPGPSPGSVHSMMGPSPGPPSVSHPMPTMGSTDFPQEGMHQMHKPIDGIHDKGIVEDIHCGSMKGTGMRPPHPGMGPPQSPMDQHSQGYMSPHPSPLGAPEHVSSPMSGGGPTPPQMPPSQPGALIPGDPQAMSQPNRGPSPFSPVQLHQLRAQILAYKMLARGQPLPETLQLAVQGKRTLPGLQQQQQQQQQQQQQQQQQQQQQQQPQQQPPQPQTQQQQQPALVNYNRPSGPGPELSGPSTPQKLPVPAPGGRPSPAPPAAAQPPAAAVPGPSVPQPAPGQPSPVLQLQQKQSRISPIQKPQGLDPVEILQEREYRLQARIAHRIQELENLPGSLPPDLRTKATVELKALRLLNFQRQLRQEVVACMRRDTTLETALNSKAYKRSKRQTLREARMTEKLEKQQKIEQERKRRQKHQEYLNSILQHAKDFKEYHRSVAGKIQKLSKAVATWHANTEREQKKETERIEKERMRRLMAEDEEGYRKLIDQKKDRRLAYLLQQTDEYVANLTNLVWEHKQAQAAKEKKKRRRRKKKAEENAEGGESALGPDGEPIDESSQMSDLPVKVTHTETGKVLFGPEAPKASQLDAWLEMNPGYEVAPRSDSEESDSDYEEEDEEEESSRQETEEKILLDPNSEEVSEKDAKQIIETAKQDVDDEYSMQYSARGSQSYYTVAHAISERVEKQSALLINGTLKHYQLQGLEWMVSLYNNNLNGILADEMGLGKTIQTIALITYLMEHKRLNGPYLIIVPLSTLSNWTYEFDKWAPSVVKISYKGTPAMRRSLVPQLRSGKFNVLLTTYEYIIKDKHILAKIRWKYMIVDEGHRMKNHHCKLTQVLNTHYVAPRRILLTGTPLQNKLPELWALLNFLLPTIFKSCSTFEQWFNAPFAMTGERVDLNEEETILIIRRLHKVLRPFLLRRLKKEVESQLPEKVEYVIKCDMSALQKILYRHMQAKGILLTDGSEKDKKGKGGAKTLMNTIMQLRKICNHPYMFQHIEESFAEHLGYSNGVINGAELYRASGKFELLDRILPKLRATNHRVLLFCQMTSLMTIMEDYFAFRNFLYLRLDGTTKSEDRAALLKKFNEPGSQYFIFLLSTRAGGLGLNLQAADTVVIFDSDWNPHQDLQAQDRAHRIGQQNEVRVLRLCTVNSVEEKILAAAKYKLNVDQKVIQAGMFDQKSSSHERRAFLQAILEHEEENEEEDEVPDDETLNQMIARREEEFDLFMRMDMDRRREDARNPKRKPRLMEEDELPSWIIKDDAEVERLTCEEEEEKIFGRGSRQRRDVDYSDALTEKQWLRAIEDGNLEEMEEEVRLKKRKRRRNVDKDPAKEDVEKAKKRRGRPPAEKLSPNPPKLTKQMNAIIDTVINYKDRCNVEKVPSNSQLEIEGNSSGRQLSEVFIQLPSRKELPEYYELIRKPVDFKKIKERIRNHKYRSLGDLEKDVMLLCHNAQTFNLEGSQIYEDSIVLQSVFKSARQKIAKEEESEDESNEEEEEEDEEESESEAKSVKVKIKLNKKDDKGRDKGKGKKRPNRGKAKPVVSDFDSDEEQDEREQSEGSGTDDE
How it was run: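 Mean nuclear SMARCA2 signal, imaged on an Opera Phoenix after fixing, blocking with 10% goat serum and staining, was the read-out. A 4-parametric logistic fit gave EC50.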

[2] = molecular target: T1, VCB: PROTAC: SMARCA2^BD ternary complex (Homo sapiens, UniProt P51531); test: TR-FRET ternary complex affinity and cooperativity, SMARCA2; format: binding
T1 construct: P51531-2, residues 1373-1493 with additional N-terminal SM residues; GST (TEV site) (N); His6 (TEV site) (N, cleaved yes); made in house; host or cells: SMARCA2^BD: Escherichia coli BL21(DE3)
T1 sequence (P51531 with tags, fused parts or gaps isoform P51531-2): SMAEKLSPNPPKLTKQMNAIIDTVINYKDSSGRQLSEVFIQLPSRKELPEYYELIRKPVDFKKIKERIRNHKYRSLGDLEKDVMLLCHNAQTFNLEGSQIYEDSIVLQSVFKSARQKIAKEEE

[3] = molecular target: SMARCA4 (Homo sapiens, UniProt P51532); test: SMARCA4 capillary electrophoresis protein assay in RKO cells; format: cell-based; set-up: endogenous in cells; host or cells: RKO, HCT116, LU99, HCC-364, HCT-15, HCC4006, SK-N-AS; conditions: mean ± SD; for Dmax: RKO
SMARCA4, sequence (P51532 whole entry): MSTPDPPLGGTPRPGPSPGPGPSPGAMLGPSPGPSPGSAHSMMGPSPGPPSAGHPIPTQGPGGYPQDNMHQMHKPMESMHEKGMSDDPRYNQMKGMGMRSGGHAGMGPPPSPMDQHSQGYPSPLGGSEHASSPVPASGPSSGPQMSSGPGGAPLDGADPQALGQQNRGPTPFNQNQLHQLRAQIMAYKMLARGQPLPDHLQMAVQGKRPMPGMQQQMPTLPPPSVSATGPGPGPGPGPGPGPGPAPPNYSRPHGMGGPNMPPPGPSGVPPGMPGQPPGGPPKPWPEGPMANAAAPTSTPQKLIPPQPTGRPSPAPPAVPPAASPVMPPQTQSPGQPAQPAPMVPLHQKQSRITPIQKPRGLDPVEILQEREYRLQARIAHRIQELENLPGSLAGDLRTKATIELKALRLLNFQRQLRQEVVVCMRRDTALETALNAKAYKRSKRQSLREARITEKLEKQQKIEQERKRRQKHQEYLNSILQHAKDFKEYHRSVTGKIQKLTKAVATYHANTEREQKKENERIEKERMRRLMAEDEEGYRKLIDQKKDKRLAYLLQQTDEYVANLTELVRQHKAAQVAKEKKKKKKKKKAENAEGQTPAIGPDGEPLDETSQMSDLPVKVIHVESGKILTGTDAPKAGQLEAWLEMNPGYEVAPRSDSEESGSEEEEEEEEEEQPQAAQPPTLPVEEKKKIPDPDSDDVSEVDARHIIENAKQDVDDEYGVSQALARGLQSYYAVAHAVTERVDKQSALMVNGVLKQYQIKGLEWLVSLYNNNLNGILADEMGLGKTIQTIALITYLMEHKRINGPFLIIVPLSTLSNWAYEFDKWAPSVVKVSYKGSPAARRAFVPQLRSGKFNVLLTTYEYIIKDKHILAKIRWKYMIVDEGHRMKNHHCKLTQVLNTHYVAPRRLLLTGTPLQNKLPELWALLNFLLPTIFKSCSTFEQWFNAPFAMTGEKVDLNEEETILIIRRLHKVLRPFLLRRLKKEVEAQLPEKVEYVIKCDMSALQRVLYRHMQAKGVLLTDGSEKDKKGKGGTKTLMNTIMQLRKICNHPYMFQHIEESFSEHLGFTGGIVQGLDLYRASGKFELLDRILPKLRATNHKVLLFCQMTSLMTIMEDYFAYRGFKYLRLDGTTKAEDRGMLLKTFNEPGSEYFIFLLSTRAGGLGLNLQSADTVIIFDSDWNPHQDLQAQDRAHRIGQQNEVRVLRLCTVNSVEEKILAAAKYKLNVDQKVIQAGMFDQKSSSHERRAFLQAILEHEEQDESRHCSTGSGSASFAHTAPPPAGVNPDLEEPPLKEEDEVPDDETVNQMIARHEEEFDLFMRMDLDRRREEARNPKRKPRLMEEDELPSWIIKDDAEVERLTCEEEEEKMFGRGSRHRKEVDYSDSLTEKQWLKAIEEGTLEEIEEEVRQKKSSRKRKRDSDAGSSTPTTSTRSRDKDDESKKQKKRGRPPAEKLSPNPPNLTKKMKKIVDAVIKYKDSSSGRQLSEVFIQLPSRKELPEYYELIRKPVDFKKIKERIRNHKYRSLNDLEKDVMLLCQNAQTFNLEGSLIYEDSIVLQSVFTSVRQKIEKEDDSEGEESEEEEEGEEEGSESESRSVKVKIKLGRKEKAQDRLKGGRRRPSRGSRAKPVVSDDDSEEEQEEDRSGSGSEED
How it was run: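 Protein was read by capillary electrophoresis immunodetection on lysates, normalised to GAPDH, with 4-parametric logistic curves where applicable. Degradation exposures ran 4 or 18 h. Turnover used cycloheximide 50 µg/ml for 1–24 h. Recovery used 100 nM compound 6 for 4 h as baseline, followed by a 25 or 50 µM VHL binder for 3 or 24 h.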

[4] = molecular target: T2, PBRM1 BD (Homo sapiens, UniProt Q86U86); test: TR-FRET binary and ternary (PROTAC + VCB) affinity, PBRM1 bromodomain; format: binding; conditions: individual replicates
T2 construct: GST (TEV site) (N); made in house; host or cells: Escherichia coli BL21(DE3)

[5] = test system: NCI-H1568 cells; test: Cell viability assay (CellTiter Glo) in NCI-H1568; format: cell-based, human; conditions: for EC50: read-out: EC50 cell proliferation (CellTiter Glo); for IC50: NCI-H1568, (18h), CellTiter Glo, individual replicates, read-out: NCI-H1568 (18h) CTG
How it was run: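 This proliferation assay used human NCI-H1568 cells seeded at 500–2000 cells per well into 96-well white, clear-bottom plates containing 180–200 µl medium. Compounds were dispensed digitally the following day alongside a T0 reference measurement. Cells and CellTiter Glo reagent were brought to room temperature, incubated 10–20 min with shaking, and luminescence was read.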

[6] = 4h, read-out: RKO (4h) SMARCA2 DC50
[7] = 18h, read-out: RKO (18h) SMARCA2 DC50
[8] = TR-FRET competition for SMARCA2BD, without VCB, mean ± SD, read-out: TR-FRET SMARCA2BD EC50
[9] = binary, PROTAC alone, individual replicates, read-out: SMARCA2 BD EC50
[10] = PROTAC + VCB, read-out: Ternary PBRM1 BD EC50 (PROTAC + VCB)
[11] = binary, PROTAC alone, read-out: PBRM1 EC50

| SMILES | DC50 [1, 6] | DC50 [1, 7] | EC50 [2, 8] [nM] | EC50 [2, 9] | DC50 ([3]; RKO (4 h)) [nM] | SMARCA4 Dmax ([3]; RKO (4 h)) [%] | DC50 ([3]; RKO (18 h)) [nM] | SMARCA4 Dmax ([3]; RKO (18 h)) [%] | EC50 [4, 10] | EC50 [4, 11] | EC50 ([5]; NCI-H1568 ([…]), mean ± SD) [nM] | IC50 [5] | Dmax ([3]; RKO (4 h)) [%] | Dmax ([3]; RKO (18 h)) [%] | EC50 ([5]; Homo sapiens, NCI-H1568, […]) [nM] |
| --- | --- | --- | --- | --- | --- | --- | --- | --- | --- | --- | --- | --- | --- | --- | --- |
| Cc1ncsc1-c1ccc(CNC(=O)[C@@H]2C[C@@H](O)CN2C(=O)[C@@H](NC(=O)C2(F)CC2)C(C)(C)C)c(OCCOCCOCCOCCN2CCC(c3ccc4c(c3)n(C3CCCC3)c3nc(=O)c5c(Br)cccc5n43)CC2)c1 [compound 22] | 85.8 nM and 400 nM and 157 nM | 97.4 nM and 276 nM and 121 nM | 274 ± 41 | 242 nM and 328 nM and 288 nM and 245 nM | 54 ± 47 | 84 ± 1 | 77 ± 67 | 89 ± 5 | 33.2 nM and 39.2 nM and 42.6 nM | 84.2 nM and 107 nM and 111 nM (2×) | 187 ± 76 | 280 nM and 175 nM and 133 nM | – | – | – |
| Cc1ncsc1-c1ccc(CNC(=O)[C@@H]2C[C@@H](O)CN2C(=O)[C@@H](NC(=O)C2(F)CC2)C(C)(C)C)c(OCCCCN2CCC(c3ccc4c(c3)n(C3CCCC3)c3nc(=O)c5c(Br)cccc5n43)CC2)c1 [compound 23] | – | 30 nM and 50 nM and 40 nM | 98 ± 12 | 88.5 nM and 111 nM and 107 nM and 87.4 nM | > 25000 | – | 1260 | 76 ± 30 | 18.3 nM and 22.9 nM and 22.1 nM | 46.2 nM and 37.9 nM and 38.2 nM and 36.1 nM | 104 ± 27 | 133 nM and 78.5 nM and 108 nM | – | – | – |
| Cc1ncsc1-c1ccc([C@H](CCCCN2CCC(c3ccc4c(c3)n(C3CCCC3)c3nc(=O)c5c(Br)cccc5n43)CC2)NC(=O)[C@@H]2C[C@@H](O)CN2C(=O)[C@@H](NC(=O)C2(F)CC2)C(C)(C)C)cc1 [compound 25] | 4.26 nM and 1.82 nM and 3.89 nM and 3.46 nM | 2 nM and 2.63 nM and 3.33 nM | 87 ± 35 | 179 nM and 54.5 nM and 63.5 nM and 111 nM and 66.9 nM and 57.7 nM and 73.7 nM and 97.8 nM and 88.9 nM and 103 nM and 118 nM and 101 nM and 123 nM and 55.7 nM | – | – | 40 ± 16 | 52 ± 21 | 2.29 nM and 2.88 nM and 3.31 nM and 5.31 nM and 3.22 nM | 33 nM and 36.4 nM and 33.2 nM and 57.3 nM and 26.6 nM | 7 ± 4 | 11.9 nM and 5.25 nM and 6.51 nM | – | – | – |
| Cc1ncsc1-c1ccc([C@H](COCCN2CCC(c3ccc4c(c3)n(C3CCCC3)c3nc(=O)c5c(Br)cccc5n43)CC2)NC(=O)[C@@H]2C[C@@H](O)CN2C(=O)[C@@H](NC(=O)C2(N(C)C)CC2)C(C)(C)C)cc1 [compound 26] | 13.4 nM and 7.13 nM and 22 nM and 9.24 nM | 3.5 nM and 6.73 nM and 7.09 nM | 71 ± 15 | 87 nM and 79.2 nM and 87.9 nM and 88.7 nM and 86.5 nM and 48.4 nM and 75.1 nM and 59.9 nM and 56.1 nM (2×) and 67.5 nM | 81 ± 14 | – | 83 ± 21 | – | 4.07 nM and 5.33 nM and 4.96 nM and 5.58 nM and 10.7 nM and 6.01 nM and 6.73 nM and 6.09 nM | 22.2 nM and 18.2 nM and 23.4 nM and 24.5 nM and 15.7 nM and 23.5 nM and 21.5 nM and 14.9 nM and 30.3 nM and 26.7 nM | – | 52.4 nM and 57.1 nM and 12.2 nM | 61 ± 15 | 82 ± 5 | 33 ± 25 |
| Cc1ncsc1-c1ccc([C@H](COCCCN2CCC(c3ccc4c(c3)n(C3CCCC3)c3nc(=O)c5c(Br)cccc5n43)CC2)NC(=O)[C@@H]2C[C@@H](O)CN2C(=O)[C@@H](NC(=O)C2(F)CC2)C(C)(C)C)cc1 [compound 27] | 5.2 nM and 2.76 nM and 5.65 nM and 7.65 nM | 1.7 nM and 2.99 nM and 2.34 nM | 91 ± 11 | 98.5 nM and 107 nM and 101 nM (2×) and 91.6 nM and 79.8 nM and 86.9 nM and 77.2 nM and 83.6 nM | 42 ± 3 | 55 ± 2 | 29 ± 6 | 83 ± 7 | 2.18 nM and 2.66 nM and 2.87 nM and 2.65 nM and 2.69 nM and 3.64 nM and 3.28 nM | 32.7 nM and 35.1 nM and 34.6 nM and 30.3 nM and 34.2 nM and 22.8 nM and 45.7 nM | 13 ± 1 | 14.2 nM and 12 nM and 13.3 nM | – | – | – |
| Cc1ncsc1-c1ccc([C@H](COC(C)(C)CN2CCC(c3ccc4c(c3)n(C3CCCC3)c3nc(=O)c5c(Br)cccc5n43)CC2)NC(=O)[C@@H]2C[C@@H](O)CN2C(=O)[C@@H](NC(=O)C2(F)CC2)C(C)(C)C)cc1 [compound 28] | 14.7 nM and 15 nM and 30.1 nM and 11.8 nM | 3.23 nM and 5.17 nM and 7.73 nM and 5.43 nM | 130 ± 18 | 132 nM and 140 nM and 145 nM and 139 nM and 134 nM and 133 nM and 154 nM and 106 nM and 96.3 nM and 137 nM | > 25000 | – | 159 ± 57 | 14 ± 42 | 5.74 nM and 5.13 nM and 5.34 nM and 1.07 nM | 37.2 nM and 28.8 nM and 29.6 nM and 10.8 nM | 16 ± 5 | 16.7 nM and 21.6 nM and 18.3 nM and 17.1 nM and 20.5 nM and 6.45 nM | – | – | – |
| Cc1ncsc1-c1ccc([C@H](CC[C@@H](C)CCN2CCC(c3ccc4c(c3)n(C3CCCC3)c3nc(=O)c5c(Br)cccc5n43)CC2)NC(=O)[C@@H]2C[C@@H](O)CN2C(=O)[C@@H](NC(=O)C2(F)CC2)C(C)(C)C)cc1 [compound 29] | 1.56 nM and 2.15 nM and 1.32 nM and 3.46 nM | 0.877 nM and 0.998 nM and 0.942 nM and 0.753 nM | 201 ± 45 | 166 nM and 269 nM and 192 nM and 189 nM | 15 ± 6 | 68 ± 6 | 11 ± 3 | 87 ± 6 | 2.66 nM and 3.59 nM and 4.13 nM | 66.7 nM and 78.8 nM and 115 nM | 5 ± 2 | 4.01 nM and 5.99 nM and 2.49 nM and 8.59 nM and 7.01 nM | – | – | – |
| Cc1ncsc1-c1ccc([C@H](CCC(C)(C)CCN2CCC(c3ccc4c(c3)n(C3CCCC3)c3nc(=O)c5c(Br)cccc5n43)CC2)NC(=O)[C@@H]2C[C@@H](O)CN2C(=O)[C@@H](NC(=O)C2(F)CC2)C(C)(C)C)cc1 [compound 30] | 6.74 nM and 9.27 nM | 2.02 nM and 3.96 nM and 3.27 nM and 3.57 nM | 260 ± 100 | 213 nM and 176 nM and > 400 nM and 400 nM and 304 nM | > 25000 | – | 73 ± 35 | 72 ± 7 | 4.23 nM and 6.19 nM and 8.06 nM | 111 nM and 105 nM and 192 nM | 12 ± 6 | 19.7 nM and 17.5 nM and 8.43 nM and 7.53 nM | – | – | – |

Source: PMC9551036, “A selective and orally bioavailable VHL-recruiting PROTAC achieves SMARCA2 degradation in vivo” (Nature Communications, 2022)
